Earlier results as cited in patent US11124883B2, “Method for inhibiting metal corrosion using a benzimidazole-containing composition” (priority 2017, dated 2021).

Details: at 20° C., according to DrugBank

**Q.** For c1ccc2[nH]cnc2c1 [unsubstituted benzimidazole, benzimidazole], which water solubility is on record?
**A.** about 20 g/L
